Data taken from patent US20250059170A1, “SOLID STATE FORMS OF AN FGFR INHIBITOR” (Kinnate Biopharma Inc., priority 2021, published 2025).
Values after ≈ are worked out from the molar mass of the structure shown. Blank lines part the entries; values can stand above or below the compound they belong to.

Key:
Format in all cases: physicochemical
[1] = Solid form characterization summary (hygroscopicity comment); conditions: comment on solid form
Excerpt: A summary of the characterization data for the solid forms of Compound 1 identified is shown below in Table 15.

[2] = Water activity studies in IPA/water
Description: Water activity studies of Form I, II and V were also performed in IPA/water with different water content at RT and 50° C.

[3] = Solubility testing of Form II in SGF, water, FaSSIF and FeSSIF; conditions: for solubility: thermodynamic from solid
Description: Nine crystal forms were identified, assigned as Form I-IX, including a mono-hydrate (Form I) four anhydrates (Form II, III, V and IX), a hemihydrate, (Form IV) and three solvates (Form VI, VII and VIII). […] The three solvates (Form VI, VII, and VIII) converted to Form II after desolvation and recrystallization during heating by DSC. Form II was evaluated by DVS, solubility and stability testing. […] The purity decreased by about 0.3% at 60° C. for 3 days and 7 days, mainly due to the increase of impurities at RRT 0.9, 0.91 and 1.07.
(§1) HPLC analysis was performed with an Agilent HPLC 1260 series instrument.

[4] = Dynamic Vapor Sorption (DVS)
Description: Moisture sorption/desorption data was collected on a DVS Intrinsic PLUS (SMS, UK). The sample was placed into a tared sample chamber and automatically weighed. The sample was dried at 40° C./0% RH until the dm/dt was less than 0.002% and cooled to 25° C.

[5] = Solid stability of Form II
Description: as §1
The solid stability of Form II was evaluated at 60° C. for 7 days, 40° C./75% RH for 6 days, and RT/92.5% RH for 2 days, respectively. […] The purity of Compound 1 decreased by about 0.3% at 60° C. for 3 days and 7 days, mainly due to the increase of the impurities at RRT 0.9, 0.91 and 1.07.

[6] = Competitive slurry inter-conversion studies; conditions: competitive slurries in non-aqueous solvents, RT and 50° C.
Description: Competitive slurries of Form I, II and V were performed in IPAC at RT and 50° C. […] A competitive slurry of Form III and Form II was conducted in IPA and IPAC at RT and 50° C., respectively, and all mixtures converted to Form II after 1 day. A competitive slurry of Form II and IX was also performed in IPA and IPAC at RT and 50° C. […] In IPA at RT and IPA and EA at RT and 50° C., all mixtures tended to convert to Form II.

[7] = Preliminary solubility in 14 solvents by solvent addition with visual assessment; conditions: thermodynamic from solid, RT
Excerpt: Preliminary solubility of Compound 1 (Form V) was estimated in 14 selected solvents at RT using solvent addition method via visual assessment of samples.

Structure (SMILES): C=CC(=O)N1C[C@@H](n2nc(C#Cc3c(F)cc4c(ncn4C4CC4)c3F)c(C(N)=O)c2NC)C[C@@H]1COC [Form III, 1-((3S,5R)-1-acryloyl-5-(methoxymethyl)pyrrolidin-3-yl)-3-((1-cyclopropyl-4,6-difluoro-1H-benzo[d]imidazol-5-yl)ethynyl)-5-(methylamino)-1H-pyrazole-4-carboxamide]
Hygroscopicity [1]: Hygroscopic

Structure (SMILES): C=CC(=O)N1C[C@@H](n2nc(C#Cc3c(F)cc4c(ncn4C4CC4)c3F)c(C(N)=O)c2NC)C[C@@H]1COC [Form I, 1-((3S,5R)-1-acryloyl-5-(methoxymethyl)pyrrolidin-3-yl)-3-((1-cyclopropyl-4,6-difluoro-1H-benzo[d]imidazol-5-yl)ethynyl)-5-(methylamino)-1H-pyrazole-4-carboxamide]
Water activity (aw) at which Form I is more stable than Form II ([2]; 50° C.): ≥ 0.75
Water activity (aw) at which Form I is more stable than Form II ([2]; RT): ≥ 0.55

Structure (SMILES): C=CC(=O)N1C[C@@H](n2nc(C#Cc3c(F)cc4c(ncn4C4CC4)c3F)c(C(N)=O)c2NC)C[C@@H]1COC [Form II, 1-((3S,5R)-1-acryloyl-5-(methoxymethyl)pyrrolidin-3-yl)-3-((1-cyclopropyl-4,6-difluoro-1H-benzo[d]imidazol-5-yl)ethynyl)-5-(methylamino)-1H-pyrazole-4-carboxamide]
solubility ([3]; SGF, simulated gastric fluid): 800 µg/mL (≈ 1.53 mM)
Solubility in FeSSIF relative to FaSSIF ([3]; at 24 h): about thirty times higher
solubility ([3]; water): ~3 µg/mL (≈ 0.00573 mM)
Hygroscopicity ([4]; DVS): slightly hygroscopic
Crystal form after DVS testing ([4]; after DVS testing): remained unchanged
Solid stability ([5]; 40° C./75% RH for 6 days): physically and chemically stable
Purity decrease ([5]; 60° C. for 3 days and 7 days): about 0.3%
Solid stability ([5]; RT/92.5% RH for 2 days): physically stable
Water activity (aw) at which the form is physically stable ([2]; 50° C.): ≤ 0.55
Water activity (aw) at which the form is physically stable ([2]; RT): ≤ 0.35
Relative stability of forms [6]: most stable form in non-aqueous solvents

Now from value to compound:

solubility ([7]; organic solvent or mixture, ACN, Form V material, read-out: Solubility): 27000 to 36000 µg/mL (≈ 51.6 to 68.8 mM)
solubility ([7]; organic solvent or mixture, Acetone, Form V material, read-out: Solubility): ~34000 µg/mL (≈ 64.9 mM)
solubility ([7]; organic solvent or mixture, EA, Form V material, read-out: Solubility): ~8000 µg/mL (≈ 15.3 mM)
solubility ([7]; organic solvent or mixture, EtOH, Form V material, read-out: Solubility): ~21000 µg/mL (≈ 40.1 mM)
solubility ([7]; organic solvent or mixture, IPA, Form V material, read-out: Solubility): ~5000 µg/mL (≈ 9.55 mM)
solubility ([7]; organic solvent or mixture, IPAC, Form V material, read-out: Solubility): ~4000 µg/mL (≈ 7.64 mM)
solubility ([7]; organic solvent or mixture, Isobutanol, Form V material, read-out: Solubility): ~6000 µg/mL (≈ 11.5 mM)
solubility ([7]; organic solvent or mixture, MEK, Form V material, read-out: Solubility): ~31000 µg/mL (≈ 59.2 mM)
solubility ([7]; organic solvent or mixture, MTBE, Form V material, read-out: Solubility): < 750 µg/mL
solubility ([7]; organic solvent or mixture, MeOH, Form V material, read-out: Solubility): > 106000 µg/mL
solubility ([7]; organic solvent or mixture, THF, Form V material, read-out: Solubility): > 100000 µg/mL
solubility ([7]; organic solvent or mixture, Toluene, Form V material, read-out: Solubility): < 1000 µg/mL
solubility ([7]; organic solvent or mixture, n-Heptane, Form V material, read-out: Solubility): < 1000 µg/mL
solubility ([7]; Water, Form V material, read-out: Solubility): < 1000 µg/mL
Structure (SMILES): C=CC(=O)N1C[C@@H](n2nc(C#Cc3c(F)cc4c(ncn4C4CC4)c3F)c(C(N)=O)c2NC)C[C@@H]1COC [Compound 1, 1-((3S,5R)-1-acryloyl-5-(methoxymethyl)pyrrolidin-3-yl)-3-((1-cyclopropyl-4,6-difluoro-1H-benzo[d]imidazol-5-yl)ethynyl)-5-(methylamino)-1H-pyrazole-4-carboxamide]

solubility ([7]; organic solvent or mixture, MeOH, THF, acetone, MEK and ACN, read-out: Solubility (relatively high)): > 20000 µg/mL
solubility ([7]; non-polar solvents and water, read-out: Solubility (practically insoluble)): < 1000 µg/mL
Structure (SMILES): C=CC(=O)N1C[C@@H](n2nc(C#Cc3c(F)cc4c(ncn4C4CC4)c3F)c(C(N)=O)c2NC)C[C@@H]1COC [Form V, 1-((3S,5R)-1-acryloyl-5-(methoxymethyl)pyrrolidin-3-yl)-3-((1-cyclopropyl-4,6-difluoro-1H-benzo[d]imidazol-5-yl)ethynyl)-5-(methylamino)-1H-pyrazole-4-carboxamide]
